{
  "source": "patent US9273052B2",
  "about": "“Phthalazinone ketone derivative, preparation method thereof, and pharmaceutical use thereof” (Jiangsu Hansoh Pharmaceutical Co., Ltd., priority 2010, dated 2016)",
  "key": {"MDA-MB-436 cells": {"system": "MDA-MB-436 cells", "assay": "Cell proliferation inhibition assay (CCK8)", "assay_type": "cell-based", "details": "Homo sapiens, 72 hours"}, "[1]": {"assay": "Pharmacokinetics assay in SD rats (LC/MS/MS plasma concentration)", "assay_type": "in vivo", "details": "oral gavage, 15 mg/kg", "experimental": "The pharmacokinetic behavior of the compounds of the present invention was studied and evaluated in rats.\n24 Healthy adult SD rats, male and female in half, were purchased from SINO-BRITSH SIPPR/BK LAB. ANIMAL LTD., CO, Certificate No.: SCXK (Shanghai) 2003-0002.\nThe intragastrical administration group: the right amount of tested compounds were weighed and dissolved in 0.5 mL of DMSO, diluted with physiological saline to 10 mL and prepared to 1.5 mg/mL.\nThe intravenous injection administration group: the right amount of tested compounds were weighed and added into […].\nAfter an overnight fast, 24 healthy adult SD rats, male and female in half, were administered intragastrically at a dose of 15.0 mg/kg and an administration volume of 10 mL/kg.\n(§1) The intragastrical administration group: blood samples (0.2 mL) were taken from orbital sinus at pre administration and at 0.25 hour, 0.5 hour, 1.0 hour, 1.5 hours, 2.0 hours, 3.0 hours, 4.0 hours, 6.0 hours, 7.0 hours, 9.0 hours, 12.0 hours and 24.0 hours post administration, stored in heparinized tubes and centrifuged for 20 minutes at 3,500 rpm to separate plasma. The plasma samples were stored at −20° C. The rats were fed at 2 hours after administration.\nas §1, with “intravenous injection” for “intragastrical”, “2 minutes, 15 minutes,” for “0.25 hour,”, “hour,” for “hour, 1.5 hours,”, “8.0” for “7.0 hours, 9.0”, “C.” for “C. The rats were fed at 2 hours after administration.”\n20 μL of rat blank plasmas taken at various time points after administration were added with 50 μL of internal standard solution and 140 μL of methanol and mixed for 3 minutes by a vortexer. The mixture was centrifuged for 10 minutes at 13,500 rpm. 20 μL of the supernatant was analyzed by LC-MS/MS. The main pharmacokinetic parameters were calculated by software DAS 2.0."}, "[2]": {"system": "human colon carcinoma SW620", "assay": "Antitumor effect with temozolomide on SW620 transplanted tumors in nude mice", "assay_type": "in vivo", "details": "colon carcinoma SW620 in BALB/cA-nude mice; 10 mg/kg oral gavage + TMZ 50 mg/kg oral gavage; day 52", "experimental": "The therapeutic effect of the compounds of the present invention administered in combination with temozolomide (TMZ) on transplanted tumors of human colon carcinoma SW620 or human breast cancer cells MX-1 in nude mice was evaluated by using BALB/cA-nude mice as test animals.\nBALB/cA-nude mice, SPF, 16-20 g, female( ), were purchased from SINO-BRITSH SIPPR/BK LAB. ANIMAL LTD., CO. Certificate No.: SCXK(Shanghai) 2008-0016.\n4.2 The right rib of the nude mice was subcutaneously inoculated with colon carcinoma cells SW620. After tumors grew to 339±132 mm^3, mice were randomly divided into teams (d0).\nThe volume of tumors and the weight of the mice were measured and recorded for 2 to 3 times per week.\nThe volume of tumor (V) was calculated by the follow equation: V=½×a×b^2 wherein: a, b represents length and width respectively. The antitumor rate(%)=(C−T)/C(%) wherein: T, C represents the tumor volume of the experimental group (tested compounds) and blank control group at the end of the experiment respectively. 5. Dosage, Dosage Regimens and the Results"}, "[3]": {"system": "human breast cancer cells MX-1", "assay": "Antitumor effect with temozolomide on MX-1 transplanted tumors in nude mice", "assay_type": "in vivo", "details": "breast cancer MX-1 in BALB/cA-nude mice, day 8", "experimental": "The therapeutic effect of the compounds of the present invention administered in combination with temozolomide (TMZ) on transplanted tumors of human colon carcinoma SW620 or human breast cancer cells MX-1 in nude mice was evaluated by using BALB/cA-nude mice as test animals. BALB/cA-nude mice, SPF, 16-20 g, female( ), were purchased from SINO-BRITSH SIPPR/BK LAB. ANIMAL LTD., CO. Certificate No.: SCXK(Shanghai) 2008-0016. Nude mice were subcutaneously inoculated with human breast cancer cells MX-1. After tumors grew to 100 to 200 mm^3, mice were randomly divided into teams (d0). The volume of tumors and the weight of the mice were measured and recorded for 2 to 3 times per week. The volume of tumor (V) was calculated by the follow equation: V=½×a×b^2 wherein: a, b represents length and width respectively. The antitumor rate(%)=(C−T)/C(%) wherein: T, C represents the tumor volume of the experimental group (tested compounds) and blank control group at the end of the experiment respectively. 5. Dosage, Dosage Regimens and the Results"}},
  "data": [
    {"smiles": "O=C(c1cc(Cc2n[nH]c(=O)c3ccccc23)ccc1F)N1CCn2nc(C(F)(F)F)nc2C1", "note": "[Example 19, 4-[[4-fluoro-3-[2-(trifluoromethyl)-6,8-dihydro-5H-[1,2,4]triazolo[1,5-a]pyrazine-7-carbonyl]phenyl]methyl]-2H-phthalazin-1-one]", "values": [
      {"measurement": "IC50", "setting": "MDA-MB-436 cells", "value": 49, "unit": "nM"},
      {"measurement": "AUC", "setting": "[1]; both sexes, rat, plasma, read-out: Area Under Curve AUC", "value": "12600 ± 12400", "unit": "ng·h/mL"},
      {"measurement": "half-life", "setting": "[1]; both sexes, rat, plasma, read-out: Half-Life t1/2 (converted)", "value": "9.79 ± 4.82", "unit": "h"},
      {"measurement": "MRT", "setting": "[1]; both sexes, rat, plasma, read-out: Mean Residence Time MRT", "value": "3.5 ± 1.46", "unit": "h"},
      {"measurement": "Cmax", "setting": "[1]; both sexes, rat, plasma, read-out: Plasma Conc. Cmax", "value": "2340 ± 1650", "unit": "ng/mL"},
      {"measurement": "Apparent Distribution Volume Vz/F", "setting": "[1]", "value": "7.97 ± 5.38", "unit": "kg⁻¹"},
      {"measurement": "Clearance CL/F", "setting": "[1]", "value": "3.45 ± 3.21 1/11/kg"},
      {"measurement": "antitumor rate (%)", "setting": "[2]", "value": "++ (“++”: 60%~80%)"},
      {"measurement": "antitumor rate (%)", "setting": "[3]; 1 mg/kg oral gavage + TMZ 50 mg/kg oral gavage", "value": "+++ (“+++”: 80%~100%)"},
      {"measurement": "antitumor rate (%)", "setting": "[3]; 3 mg/kg oral gavage + TMZ 50 mg/kg oral gavage", "value": "+++ (“+++”: 80%~100%)"},
      {"measurement": "antitumor rate (%)", "setting": "[3]; 10 mg/kg oral gavage + TMZ 50 mg/kg oral gavage", "value": "+++ (“+++”: 80%~100%)"}
    ]}
  ]
}
